Consider one substance from patent US5804410A, “Nucleic acid sequence encoding trypsin-like enzyme and process for producing the enzyme” (Teijin Limited, priority 1994, dated 1998).

One series deals with VSV New Jersey strain. To be noted: cited from earlier work.
The target of a further series is T1, trypsin-like enzyme (Homo sapiens, UniProt O60235).
T1 construct: from tissue; host or cells: cough phlegm (sputum) of patients with chronic disease of the respiratory tract
Kind of series: Substrate specificity, synthetic MCA substrates (assay method of trypsin activity). In kind it is biochemical. To be noted: synthetic substrates, pH 8.6.

Another series deals with fibrinogen. Briefly: Influence of trypsin-like enzyme on thrombin-induced coagulation time of fibrinogen. In kind it is biochemical. Conditions: fibrinogen 2 mg/ml, 37° C., thrombin 2.5 units/ml; in proportion as the added activity unit increases; FIG. 3. How it is done: Fibrinogen was dissolved in 0.01M Tris-HCl buffer (pH 7.4), 0.01M CaCl2 0.15M NaCl so that its concentration could be 2 mg/ml, the trypsin-like enzyme obtained in Example 1 was added with its activity unit changed, the mixture was heated to 37° C., 0.1 ml of this reaction solution was mixed with 0.1 ml of a thrombin solution (2.5 units/ml), and coagulation time was measured on the mixture. In proportion as the added activity unit of the trypsin-like enzyme increases, coagulation time was prolonged.

The nature of series [1]: Measurement of optimum pH of trypsin-like enzyme. In kind it is biochemical. Conditions: at pH 6.0, relative to the enzyme at pH 7.6. Here is the method: 50 μl of the solution of the trypsin-like protease obtained in Example 1 was added to 1.5 ml of 0.1M Tris-HCl buffer (pH 8.6) containing 100 μM of a synthetic substrate for trypsin Boc-Phe-Ser-Arg-MCA (MCA=methylcoumarinamide), and the mixture was subjected to incubation at 37° C. for 1 hour. 1 ml of 30% acetic acid was then added, the amount of 7-amino-4-methylcoumarin (AMC) formed was determined by fluorescent assay (fluorescence 440 nm, excitating light 380 nm), and the activity of the enzyme was calculated based thereon. An activity of forming 1 pM of AMC in 1 minute is defined as 1 unit (1 unit=1 pM AMC/min).
The following buffers were prepared for ascertaining trypsin activity at various pH values.
The activity of the trypsin-like enzyme obtained in Example 1 in each buffer was assayed according to the method described in Example 2, and the results are shown in FIG. 2.

A further series relates to NDV Miyadera strain. To be noted: cited from earlier work.
The next series deals with influenza viruses. Conditions: in contrast to trypsin; cited from earlier work.

T1 sequence (O60235 187-418): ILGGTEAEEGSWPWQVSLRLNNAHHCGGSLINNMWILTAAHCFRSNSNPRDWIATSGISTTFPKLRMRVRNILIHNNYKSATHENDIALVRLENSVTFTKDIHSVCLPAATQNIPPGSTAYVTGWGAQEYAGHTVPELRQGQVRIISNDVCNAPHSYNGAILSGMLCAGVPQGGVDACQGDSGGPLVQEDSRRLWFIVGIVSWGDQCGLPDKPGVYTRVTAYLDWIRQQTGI

Consider “trypsin-like enzyme: protease isolated from cough phlegm of patients with chronic respiratory tract disease, amino acid sequence [I] (SEQ ID NO:19)”, for which, in the series with VSV New Jersey strain, the “action of inactivating VSV New Jersey strain” value is on record as “inactivating”. In addition, the “chymotrypsin activity, elastase activity, collagenase activity, leucine aminopeptidase activity of the enzyme” value in the series with trypsin-like enzyme was “did not exhibit”. Besides, in the series on fibrinogen, the coagulation time entry was “prolonged”. In addition, the “Inactivation by pH” value in series [1] was “about 80%”. Moreover, the “action of inactivating NDV Miyadera strain” value in the series with NDV Miyadera strain is given as “inactivating”. For the same substance, the “action of inactivating influenza viruses” value in the series on influenza viruses was “inactivating”.
